Measurements published in ChEMBL document CHEMBL5506059, “Cyanomethylquinolones as a New Class of Potential Multitargeting Broad-Spectrum Antibacterial Agents” (J Med Chem, 2024).
Converted amounts (≈) assume the structure as drawn. The source made the active and inactive calls. The rule behind the calls is not given here.

Experiments:
Staphylococcus aureus [1] = test: Antibacterial activity against methicillin resistant Staphylococcus aureus clinical isolate assessed as inhibition of bacterial growth incubated for 24 hrs; format: functional
Escherichia coli [2] = test: Antibacterial activity against Escherichia coli clinical isolate assessed as inhibition of bacterial growth incubated for 24 hrs; format: functional
Streptococcus pneumoniae = test: Antibacterial activity against Streptococcus pneumoniae ATCC 6305 assessed as inhibition of bacterial growth incubated for 24 hrs; format: functional
Streptococcus pyogenes = test: Antibacterial activity against Streptococcus pyogenes ATCC 19615 assessed as inhibition of bacterial growth incubated for 24 hrs; format: functional
Staphylococcus aureus [3] = test: Antibacterial activity against Staphylococcus aureus ATCC 6538 assessed as inhibition of bacterial growth incubated for 24 hrs; format: functional
Staphylococcus aureus [4] = test: Antibacterial activity against Staphylococcus aureus CMCC(B)26003 assessed as inhibition of bacterial growth incubated for 24 hrs; format: functional
Pseudomonas aeruginosa [5] = test: Resistance development in ciprofloxacin-treated Pseudomonas aeruginosa ATCC 27853 assessed as increase in MIC measured after 15th generation; format: functional, organism-based
Acinetobacter baumannii = test: Antibacterial activity against Acinetobacter baumannii clinical isolate assessed as inhibition of bacterial growth incubated for 24 hrs; format: functional
[6] = tested on: Staphylococcus epidermidis; test: Antibacterial activity against Staphylococcus epidermidis ATCC 12228 assessed as inhibition of bacterial growth incubated for 24 hrs; format: functional
Enterococcus faecalis [7] = test: Antibacterial activity against Enterococcus faecalis clinical isolate assessed as inhibition of bacterial growth incubated for 24 hrs; format: functional
Pseudomonas aeruginosa [8] = test: Resistance development in ciprofloxacin-treated Pseudomonas aeruginosa assessed as increase in MIC measured after 15th generation; format: functional, organism-based
Escherichia coli [9] = test: Antibacterial activity against Escherichia coli ATCC 25922 assessed as inhibition of bacterial growth incubated for 24 hrs; format: functional
Staphylococcus aureus [10] = test: Antibacterial activity against methicillin-resistant Staphylococcus aureus ATCC 43300 assessed as inhibition of bacterial growth incubated for 24 hrs; format: functional
Staphylococcus aureus [11] = test: Antibacterial activity against Staphylococcus aureus ATCC 12600 assessed as inhibition of bacterial growth incubated for 24 hrs; format: functional
Enterococcus faecium = test: Antibacterial activity against Enterococcus faecium ATCC 19434 assessed as inhibition of bacterial growth incubated for 24 hrs; format: functional
Staphylococcus aureus [12] = test: Antibacterial activity against Staphylococcus aureus ATCC 25923 assessed as inhibition of bacterial growth incubated for 24 hrs; format: functional
Staphylococcus aureus [13] = test: Antibacterial activity against Staphylococcus aureus clinical isolate assessed as inhibition of bacterial growth incubated for 24 hrs; format: functional
Staphylococcus aureus [14] = test: Antibacterial activity against Staphylococcus aureus ATCC 29213 assessed as inhibition of bacterial growth incubated for 24 hrs; format: functional
Staphylococcus aureus [15] = test: Antibacterial activity against Staphylococcus aureus CMCC(B)26001 assessed as inhibition of bacterial growth incubated for 24 hrs; format: functional
Staphylococcus aureus [16] = test: Resistance development in ciprofloxacin-treated methicillin resistant Staphylococcus aureus assessed as increase in MIC measured after 15th generation; format: functional, organism-based
Pseudomonas aeruginosa [17] = test: Antibacterial activity against Pseudomonas aeruginosa ATCC 27853 assessed as inhibition of bacterial growth incubated for 24 hrs; format: functional
Staphylococcus aureus [18] = test: Resistance development in ciprofloxacin-treated Staphylococcus aureus ATCC 6538 assessed as increase in MIC measured after 15th generation; format: functional, organism-based
Pseudomonas aeruginosa [19] = test: Antibacterial activity against Pseudomonas aeruginosa clinical isolate assessed as inhibition of bacterial growth incubated for 24 hrs; format: functional
Klebsiella pneumoniae = test: Antibacterial activity against Klebsiella pneumoniae clinical isolate assessed as inhibition of bacterial growth incubated for 24 hrs; format: functional
Enterococcus faecalis [20] = test: Antibacterial activity against vancomycin-resistant Enterococcus faecalis clinical isolate p1-2007225053 assessed as inhibition of bacterial growth incubated for 24 hrs; format: functional
Enterococcus faecalis [21] = test: Antibacterial activity against vancomycin-resistant Enterococcus faecalis clinical isolate p1-2007226001 assessed as inhibition of bacterial growth incubated for 24 hrs; format: functional
Erythrocyte = test: Hemolytic activity in human Red blood cells assessed as concentration required for 5% hemolysis measured after 1.5 hrs by absorbance based assay; format: toxicity, cell-based

Row | SMILES | MIC (Staphylococcus aureus [1]) [µg/mL] | MIC (Escherichia coli [2]) [µg/mL] | MIC (Streptococcus pneumoniae) [µg/mL] | MIC (Streptococcus pyogenes) [µg/mL] | MIC (Staphylococcus aureus [3]) [µg/mL] | MIC (Staphylococcus aureus [4]) [µg/mL] | MIC (Acinetobacter baumannii) [µg/mL] | MIC [6] [µg/mL] | MIC (Enterococcus faecalis [7]) [µg/mL] | MIC (Escherichia coli [9]) [µg/mL] | MIC (Staphylococcus aureus [10]) [µg/mL] | MIC (Staphylococcus aureus [11]) [µg/mL] | MIC (Enterococcus faecium) [µg/mL] | MIC (Staphylococcus aureus [12]) [µg/mL] | MIC (Staphylococcus aureus [13]) [µg/mL] | MIC (Staphylococcus aureus [14]) [µg/mL] | MIC (Staphylococcus aureus [15]) [µg/mL] | MIC (Pseudomonas aeruginosa [17]) [µg/mL] | MIC (Pseudomonas aeruginosa [19]) [µg/mL] | MIC (Klebsiella pneumoniae) [µg/mL] | also measured
1 | CCn1cc(C(=O)O)c(=O)c2cc(F)c(N3CCNCC3)cc21 [NORFLOXACIN] | 8 (≈ 25.1 µM) | 4 (≈ 12.5 µM) | 0.5 (≈ 1.57 µM) | 32 (≈ 100 µM) | 1 (≈ 3.13 µM) | 0.5 (≈ 1.57 µM) | 2 (≈ 6.26 µM) | 1 (≈ 3.13 µM) | 8 (≈ 25.1 µM) | 4 (≈ 12.5 µM) | 4 (≈ 12.5 µM) | 2 (≈ 6.26 µM) | 4 (≈ 12.5 µM) | 8 (≈ 25.1 µM) | 8 (≈ 25.1 µM) | 4 (≈ 12.5 µM) | 0.25 (≈ 0.783 µM) | 8 (≈ 25.1 µM) | 8 (≈ 25.1 µM) | 8 (≈ 25.1 µM) | Activity (Pseudomonas aeruginosa [5]): Active; Activity (Pseudomonas aeruginosa [8]): Active; Activity (Staphylococcus aureus [16]): Active; Activity (Staphylococcus aureus [18]): Active; MIC (Enterococcus faecalis [20]): 1 µg/mL (≈ 3.13 µM); MIC (Enterococcus faecalis [21]): 8 µg/mL (≈ 25.1 µM)
2 | N#CCc1cc2c(cc1F)c(=O)c(C(=O)O)cn2Cc1ccc(F)cc1F | 256 (≈ 688 µM) | 0.5 (≈ 1.34 µM) | 32 (≈ 86 µM) | 0.25 (≈ 0.671 µM) | 32 (≈ 86 µM) | 2 (≈ 5.37 µM) | 4 (≈ 10.7 µM) | 64 (≈ 172 µM) | 256 (≈ 688 µM) | 0.25 (≈ 0.671 µM) | 128 (≈ 344 µM) | 64 (≈ 172 µM) | 128 (≈ 344 µM) | 0.25 (≈ 0.671 µM) | 256 (≈ 688 µM) | 0.5 (≈ 1.34 µM) | 2 (≈ 5.37 µM) | 0.5 (≈ 1.34 µM) | 0.5 (≈ 1.34 µM) | 8 (≈ 21.5 µM) | HC5 (Erythrocyte): 60 µg/mL; MIC (Enterococcus faecalis [20]): 64 µg/mL (≈ 172 µM); MIC (Enterococcus faecalis [21]): 64 µg/mL (≈ 172 µM)
